# Key:
# H. flu = test: MIC assay, H. flu; type: cell-based, H. influenza
# C. trachomatis = test: MIC assay, C. trachomatis; type: cell-based
# S. aureus = test: MIC assay, S. aureus; type: cell-based
# S. pneumo. = test: MIC assay, S. pneumo.; type: cell-based, S. pneumoniae
# E. faecalis = test: MIC assay, E. faecalis; type: cell-based
# E. coli = test: MIC assay, E. coli; type: cell-based
Structure (SMILES),MIC (μg/mL) H. flu (H. flu),MIC (μg/mL) C. trachomatis (C. trachomatis),MIC (μg/mL) S. aureus (S. aureus),MIC (μg/mL) S. pneumo. (S. pneumo.),MIC (μg/mL) E. faecalis (E. faecalis),MIC (μg/mL) E. coli (E. coli)
CO[C@H]1/C=C/O[C@@]2(C)Oc3c(C)c(O)c4c(=O)c(c5oc6c7c(cc(O)c6nc-5c4c3C2=O)N(C)CCN7C)NC(=O)/C(C)=C\C=C\[C@H](C)[C@H](O)[C@@H](C)[C@@H](O)[C@@H](C)[C@H](OC(C)=O)[C@@H]1C [Compound 1],1 µg/mL,6.4e-05 µg/mL,0.008 µg/mL,0.00012 µg/mL,1 µg/mL,8 µg/mL
CO[C@H]1/C=C/O[C@@]2(C)Oc3c(C)c(O)c4c(=O)c(c5oc6c7c(cc(O)c6nc-5c4c3C2=O)N(C)CCN7C)NC(=O)/C(C)=C\C=C\[C@H](C)[C@H](O)[C@@H](C)[C@@H](O)[C@@H](C)[C@H](O)[C@@H]1C [Compound 2],2 µg/mL,0.001 µg/mL,0.5 µg/mL,0.06 µg/mL,1 µg/mL,8 µg/mL
CO[C@H]1/C=C/O[C@@]2(C)Oc3c(C)c(O)c4c(=O)c(c5oc6c7c(cc(O)c6nc-5c4c3C2=O)N(C)CCCN7C)NC(=O)/C(C)=C\C=C\[C@H](C)[C@H](O)[C@@H](C)[C@@H](O)[C@@H](C)[C@H](OC(C)=O)[C@@H]1C [Compound 3],2 µg/mL,6.4e-05 µg/mL,0.06 µg/mL,0.008 µg/mL,4 µg/mL,>8 µg/mL
CO[C@H]1/C=C/O[C@@]2(C)Oc3c(C)c(O)c4c(=O)c(c5oc6c7c(cc(O)c6nc-5c4c3C2=O)N(C)CCCN7C)NC(=O)/C(C)=C\C=C\[C@H](C)[C@H](O)[C@@H](C)[C@@H](O)[C@@H](C)[C@H](O)[C@@H]1C [Compound 4],2 µg/mL,0.001 µg/mL,0.12 µg/mL,0.00012 µg/mL,1 µg/mL,>8 µg/mL
